Test: xn = mol fraction of the nth substance listed
Conditions: Liquid, Taylor dispersion method, x2 = 0

CC(C)CCCC(C)CCCC(C)CCCCC(C)CCCC(C)CCCC(C)C (stereo unspecified) [2,6,10,15,19,23-hexamethyltetracosane] + O=C=O
Conditions | binary diffusion coefficient [m2/s]
298 K, 1100 kPa | 9.6e-10
298 K, 10000 kPa | 8.6e-10
298 K, 32000 kPa | 6.9e-10
298 K, 52000 kPa | 5.6e-10
298 K, 66000 kPa | 4.9e-10
323 K, 1100 kPa | 1.78e-09
323 K, 10000 kPa | 1.61e-09
323 K, 30000 kPa | 1.35e-09
323 K, 52000 kPa | 1.14e-09
323 K, 64000 kPa | 1.02e-09
348 K, 1000 kPa | 2.83e-09
348 K, 11000 kPa | 2.57e-09
348 K, 31000 kPa | 2.18e-09
348 K, 50000 kPa | 1.94e-09
348 K, 67000 kPa | 1.73e-09
373 K, 1000 kPa | 4.06e-09
373 K, 10000 kPa | 3.72e-09
373 K, 30000 kPa | 3.21e-09
373 K, 47000 kPa | 2.88e-09
373 K, 66000 kPa | 2.58e-09
398 K, 1000 kPa | 5.45e-09
398 K, 11000 kPa | 4.98e-09
398 K, 31000 kPa | 4.38e-09
398 K, 50000 kPa | 3.89e-09
398 K, 66000 kPa | 3.55e-09
423 K, 1000 kPa | 7.01e-09
423 K, 11000 kPa | 6.36e-09
423 K, 30000 kPa | 5.69e-09
423 K, 50000 kPa | 5e-09
423 K, 67000 kPa | 4.6e-09

CCCCCCCCCC [decane] + O=C=O
Conditions | binary diffusion coefficient [m2/s]
298 K, 1100 kPa | 4.69e-09
298 K, 22000 kPa | 4e-09
298 K, 45000 kPa | 3.22e-09
298 K, 68000 kPa | 2.84e-09
323 K, 1100 kPa | 6.44e-09
323 K, 22000 kPa | 5.41e-09
323 K, 46000 kPa | 4.39e-09
323 K, 68000 kPa | 3.91e-09
373 K, 1100 kPa | 1.04e-08
373 K, 22000 kPa | 8.76e-09
373 K, 44000 kPa | 7.08e-09
373 K, 67000 kPa | 6.34e-09
423 K, 1100 kPa | 1.51e-08
423 K, 21000 kPa | 1.27e-08
423 K, 43000 kPa | 1.02e-08
423 K, 66000 kPa | 9.17e-09

CCCCCCCCCCCC [dodecane] + O=C=O
Conditions | binary diffusion coefficient [m2/s]
298 K, 1300 kPa | 3.72e-09
298 K, 24000 kPa | 3.1e-09
298 K, 47000 kPa | 2.65e-09
323 K, 1200 kPa | 5.53e-09
323 K, 25000 kPa | 4.23e-09
323 K, 46000 kPa | 3.65e-09
323 K, 63000 kPa | 3.44e-09
373 K, 1200 kPa | 9.3e-09
373 K, 24000 kPa | 7.57e-09
373 K, 46000 kPa | 6.54e-09
373 K, 61000 kPa | 5.98e-09
423 K, 1200 kPa | 1.35e-08
423 K, 23000 kPa | 1.14e-08
423 K, 46000 kPa | 9.75e-09
423 K, 65000 kPa | 8.65e-09

CCCCCCC [heptane] + O=C=O
binary diffusion coefficient [m2/s]
Conditions | 1000 kPa | 10000 kPa | 30000 kPa | 31000 kPa | 48000 kPa | 49000 kPa | 50000 kPa | 51000 kPa | 67000 kPa | 68000 kPa
298 K | 7.28e-09 | 6.82e-09 | – | 5.9e-09 | – | – | 5.37e-09 | – | – | 5.06e-09
323 K | 9.25e-09 | 8.72e-09 | 7.64e-09 | – | – | – | – | 6.95e-09 | – | 6.37e-09
348 K | 1.14e-08 | 1.02e-08 | 9.4e-09 | – | 8.1e-09 | – | – | – | 7.89e-09 | –
373 K | 1.37e-08 | 1.25e-08 | 1.12e-08 | – | – | 9.95e-09 | – | – | – | 9.32e-09
398 K | 1.61e-08 | 1.49e-08 | 1.31e-08 | – | – | – | 1.17e-08 | – | – | 1.09e-08
423 K | 1.8e-08 | 1.68e-08 | 1.5e-08 | – | – | – | 1.36e-08 | – | – | 1.23e-08
